Experimental data: paper PMC11550483 (2024)

target: SARS2 M^pro (Severe acute respiratory syndrome coronavirus 2, UniProt P0DTD1, P3395H); assay type: biochemical, SARS-CoV-2

How did the “% inhibition (20 µM) biochemical” value turn out when `CC1=CC(C)(C)N2C(=O)C3(Nc4ccccc4CO3)c3cc(C)cc1c32` (centres unmarked) [MWAC-0001770, CC1=CC(C)(C)N2C(=O)C3(Nc4ccccc4CO3)c5cc(C)cc1c25] was run?
The value was 0.845%.

With `NC(=O)c1ccccc1NC(=O)/C=C/C(=O)O` [MWAC-0001765, NC(=O)c1ccccc1NC(=O)\C=C\C(=O)O] as the compound, how does the “% inhibition (20 µM) biochemical” value read?
Its value is 6.4%.

How did the “% inhibition (20 µM) biochemical” value turn out when `Cc1ccc(-c2cn3ccc4ccccc4c3n2)cc1` [MWAC-0001723, Cc1ccc(cc1)c2cn3ccc4ccccc4c3n2] was run?
The value was 8%.

For `Cc1noc(N)c1C(=O)Nc1ccc(C(C)(C)C)cc1` [MWAC-0001886, Cc1noc(N)c1C(=O)Nc2ccc(cc2)C(C)(C)C], which “% inhibition (20 µM) biochemical” value is on record?
The value was 0%.

`COc1ccc(C=O)cc1OS(=O)(=O)c1ccc(C)cc1` [MWAC-0001771, COc1ccc(C=O)cc1OS(=O)(=O)c2ccc(C)cc2] was tested. Which “% inhibition (20 µM) biochemical” value did it give?
Its value is 3.71%.

How did the “% inhibition (20 µM) biochemical” value turn out when `Cc1cc(C(=O)CCl)c(C)n1Cc1ccco1` [MWAC-0001817, Cc1cc(C(=O)CCl)c(C)n1Cc2occc2] was run?
The value was 62%.

How did the “% inhibition (20 µM) biochemical” value turn out when `C#CCN1C(=O)C(O)(CC(=O)c2ccc(Cl)cc2)c2ccccc21` (centres unmarked) [MWAC-0001731, OC1(CC(=O)c2ccc(Cl)cc2)C(=O)N(CC#C)c3ccccc13] was run?
Its value is 5%.

`O=Cc1ccccc1OCc1ccc2c(c1)OCO2` [MWAC-0001842, O=Cc1ccccc1OCc2ccc3OCOc3c2] was tested. Which “% inhibition (20 µM) biochemical” value did it give?
Its value is 11%.

For `CCOc1ccccc1C1CC(c2ccccc2)Nc2ncnn21` (centres unmarked) [MWAC-0001745, CCOc1ccccc1C2CC(Nc3ncnn23)c4ccccc4], which “% inhibition (20 µM) biochemical” value is on record?
Its value is 5.37%.

For `CCc1c(C)sc(NC(=O)CCc2ccccc2)c1C(N)=O` [MWAC-0001812, CCc1c(C)sc(NC(=O)CCc2ccccc2)c1C(=O)N], which “% inhibition (20 µM) biochemical” value is on record?
The value was 4%.

Which “% inhibition (20 µM) biochemical” value does the source give for `S=C(c1ccc(-c2cccc(Cl)c2)o1)N1CCCCC1` [MWAC-0001879, Clc1cccc(c1)c2oc(cc2)C(=S)N3CCCCC3] here?
Its value is 0%.

With `COCCCNC(=O)/C(C#N)=C/c1cc(C)n(-c2ccc(F)cc2)c1C` [MWAC-0001826, COCCCNC(=O)\C(=C\c1cc(C)n(c1C)c2ccc(F)cc2)\C#N] as the compound, how does the “% inhibition (20 µM) biochemical” value read?
Its value is 5%.

How did the “% inhibition (20 µM) biochemical” value turn out when `Nc1ccc(C(=O)Nc2ccccc2N)cc1` [MWAC-0001836, Nc1ccc(cc1)C(=O)Nc2ccccc2N] was run?
Its value is 5%.

With `CC(C)c1cc(NC(=O)CCl)cc(C(C)C)c1O` [MWAC-0001888, CC(C)c1cc(NC(=O)CCl)cc(C(C)C)c1O] as the compound, how does the “% inhibition (20 µM) biochemical” value read?
The value was 80%.

`COc1cccc(C(=O)NN2C(=S)N(c3ccccc3)C(=O)C2CC(N)=O)c1` (centres unmarked) [MWAC-0001743, COc1cccc(c1)C(=O)NN2C(CC(=O)N)C(=O)N(C2=S)c3ccccc3] was tested. Which “% inhibition (20 µM) biochemical” value did it give?
The value was 6%.

How did the “% inhibition (20 µM) biochemical” value turn out when `O=C1NC(=O)C(=Cc2cc(Br)ccc2OCc2cccc(F)c2)C(=O)N1` [MWAC-0001793, Fc1cccc(COc2ccc(Br)cc2C=C3C(=O)NC(=O)NC3=O)c1] was run?
Its value is 4%.

With `CCOc1ccccc1OCC(=O)N/N=C/c1cc(C)ccc1O` [MWAC-0001844, CCOc1ccccc1OCC(=O)N\N=C\c2cc(C)ccc2O] as the compound, how does the “% inhibition (20 µM) biochemical” value read?
The value was 21%.

Which “% inhibition (20 µM) biochemical” value does the source give for `COc1ccc(CC(=O)N2CCC3(CC2)NC(=O)c2cc(Br)ccc2N3)cc1` [MWAC-0001841, COc1ccc(CC(=O)N2CCC3(CC2)NC(=O)c4cc(Br)ccc4N3)cc1] here?
The value was 0%.

For `Cc1cc(C)c2oc(-c3ccc(C)c(N)c3)nc2c1` [MWAC-0001715, Cc1cc(C)c2oc(nc2c1)c3ccc(C)c(N)c3], which “% inhibition (20 µM) biochemical” value is on record?
Its value is 0%.

With `N#C/C(=C\c1c[nH]c2ccccc12)C(=O)NC1CC1` [MWAC-0001828, O=C(NC1CC1)\C(=C\c2c[nH]c3ccccc23)\C#N] as the compound, how does the “% inhibition (20 µM) biochemical” value read?
The value was 11%.

For `C=CCN1C(=O)C(O)(CC(=O)c2cccc(OC)c2)c2cc(Br)ccc21` (centres unmarked) [MWAC-0001778, COc1cccc(c1)C(=O)CC2(O)C(=O)N(CC=C)c3ccc(Br)cc23], which “% inhibition (20 µM) biochemical” value is on record?
The value was 2.82%.

With `Cc1ccc(Cl)cc1-n1c(SCc2ccccc2Cl)nc2[nH]ncc2c1=O` [MWAC-0001740, Cc1ccc(Cl)cc1N2C(=Nc3[nH]ncc3C2=O)SCc4ccccc4Cl] as the compound, how does the “% inhibition (20 µM) biochemical” value read?
The value was 9%.

`CCc1cccc2c(/C=C3\C(=O)Nc4ccccc43)c[nH]c12` [MWAC-0001851, CCc1cccc2c(\C=C\3/C(=O)Nc4ccccc34)c[nH]c12] was tested. Which “% inhibition (20 µM) biochemical” value did it give?
Its value is 2.36%.

Which “% inhibition (20 µM) biochemical” value does the source give for `Cc1ccccc1-c1noc(-c2ccc(O)cc2)n1` [MWAC-0001749, Cc1ccccc1c2noc(n2)c3ccc(O)cc3] here?
The value was 9%.

With `COc1cccc(-c2cc(C(=O)N3CCCCC3C)no2)c1` (centres unmarked) [MWAC-0001739, COc1cccc(c1)c2onc(c2)C(=O)N3CCCCC3C] as the compound, how does the “% inhibition (20 µM) biochemical” value read?
The value was 2.35%.

`Cc1cc(I)cnc1NC(=S)NC(=O)c1ccco1` [MWAC-0001789, Cc1cc(I)cnc1NC(=S)NC(=O)c2occc2] was tested. Which “% inhibition (20 µM) biochemical” value did it give?
Its value is 2.41%.

Which “% inhibition (20 µM) biochemical” value does the source give for `CCOC(=O)c1c(NC(=O)CCl)sc2c1CC(C)(C)NC2(C)C` [MWAC-0001854, CCOC(=O)c1c(NC(=O)CCl)sc2c1CC(C)(C)NC2(C)C] here?
The value was 98%.

`COc1ccc2ccccc2c1/C=C1/S/C(=N/c2ccccc2Cl)NC1=O` [MWAC-0001721, COc1ccc2ccccc2c1\C=C/3\S\C(=N\c4ccccc4Cl)\NC3=O] was tested. Which “% inhibition (20 µM) biochemical” value did it give?
Its value is 6%.

For `O=C1NC(=S)NC(=O)C1=Cc1cccc(OS(=O)(=O)c2ccc3ccccc3c2)c1` [MWAC-0001766, O=C1NC(=S)NC(=O)C1=Cc2cccc(OS(=O)(=O)c3ccc4ccccc4c3)c2], which “% inhibition (20 µM) biochemical” value is on record?
The value was 15%.

Which “% inhibition (20 µM) biochemical” value does the source give for `O=C(C[S+]([O-])c1ccc(C(F)(F)F)cc1[N+](=O)[O-])OCc1ccccc1` (centres unmarked) [MWAC-0001780, [O-][N+](=O)c1cc(ccc1S(=O)CC(=O)OCc2ccccc2)C(F)(F)F] here?
Its value is 4%.

With `Cc1ccc2nc(-c3ccc(SCC(=O)Nc4nc(C)cs4)nc3)[nH]c2c1` [MWAC-0001838, Cc1ccc2nc([nH]c2c1)c3ccc(SCC(=O)Nc4nc(C)cs4)nc3] as the compound, how does the “% inhibition (20 µM) biochemical” value read?
The value was 2.56%.

How did the “% inhibition (20 µM) biochemical” value turn out when `O=C(CCl)NCCOc1ccccc1` [MWAC-0001864, ClCC(=O)NCCOc1ccccc1] was run?
Its value is 58%.

With `CC(C)c1cc(C(=O)Nc2ccc(Br)cc2)no1` [MWAC-0001748, CC(C)c1onc(c1)C(=O)Nc2ccc(Br)cc2] as the compound, how does the “% inhibition (20 µM) biochemical” value read?
Its value is 6%.

With `COc1ccc(OC)c(NC(=O)CSc2nc3cc4c(cc3cc2C#N)OCCO4)c1` [MWAC-0001834, COc1ccc(OC)c(NC(=O)CSc2nc3cc4OCCOc4cc3cc2C#N)c1] as the compound, how does the “% inhibition (20 µM) biochemical” value read?
The value was 5.66%.

`COC(=O)c1c(NC(=O)CCl)sc(C(=O)N2CCOCC2)c1C` [MWAC-0001850, COC(=O)c1c(C)c(sc1NC(=O)CCl)C(=O)N2CCOCC2] was tested. Which “% inhibition (20 µM) biochemical” value did it give?
The value was 74%.

`CCCN1C(=O)C2(c3cc(C)ccc31)N1CC3(C)CN2CC(C)(C1)C3=O` (centres unmarked) [MWAC-0001760, CCCN1C(=O)C2(N3CC4(C)CN2CC(C)(C3)C4=O)c5cc(C)ccc15] was tested. Which “% inhibition (20 µM) biochemical” value did it give?
The value was 7%.

How did the “% inhibition (20 µM) biochemical” value turn out when `CC1=C(C(=O)OC(C)C)C(c2ccsc2)C2=C(CC(c3cccs3)CC2=O)N1` (centres unmarked) [MWAC-0001728, CC(C)OC(=O)C1=C(C)NC2=C(C1c3ccsc3)C(=O)CC(C2)c4cccs4] was run?
Its value is 0%.

Which “% inhibition (20 µM) biochemical” value does the source give for `CCOC(=O)c1[nH]c(C)c(C(=O)Nc2ccccc2SC)c1C` [MWAC-0001737, CCOC(=O)c1[nH]c(C)c(C(=O)Nc2ccccc2SC)c1C] here?
The value was 3.56%.

Which “% inhibition (20 µM) biochemical” value does the source give for `COc1cc(CSc2nnc[nH]2)c(OC)cc1CSc1nnc[nH]1` [MWAC-0001824, COc1cc(CSc2nnc[nH]2)c(OC)cc1CSc3nnc[nH]3] here?
Its value is 0%.

With `O=C(CCl)NC(c1ccccc1)c1ccc(Cl)cc1` (centres unmarked) [MWAC-0001861, ClCC(=O)NC(c1ccccc1)c2ccc(Cl)cc2] as the compound, how does the “% inhibition (20 µM) biochemical” value read?
The value was 67%.

Which “% inhibition (20 µM) biochemical” value does the source give for `CCc1ccc(C(=O)Cn2c(C)nc([N+](=O)[O-])c2Br)cc1` [MWAC-0001880, CCc1ccc(cc1)C(=O)Cn2c(C)nc(c2Br)[N+](=O)[O-]] here?
Its value is 0%.

For `Cc1cc(C(=O)COn2nnc3ccc(Cl)cc32)c(C)n1-c1ccc2c(c1)OCO2` [MWAC-0001837, Cc1cc(C(=O)COn2nnc3ccc(Cl)cc23)c(C)n1c4ccc5OCOc5c4], which “% inhibition (20 µM) biochemical” value is on record?
Its value is 26%.

`CC1CCN(C(=O)/C=C/c2cccc3ccccc23)CC1` [MWAC-0001755, CC1CCN(CC1)C(=O)\C=C\c2cccc3ccccc23] was tested. Which “% inhibition (20 µM) biochemical” value did it give?
The value was 4.32%.

How did the “% inhibition (20 µM) biochemical” value turn out when `CC1=CC(C)(C)N2C(=O)C(=O)c3cc(OC(=O)c4cccc(F)c4)cc1c32` [MWAC-0001768, CC1=CC(C)(C)N2C(=O)C(=O)c3cc(OC(=O)c4cccc(F)c4)cc1c23] was run?
Its value is 2.41%.

With `CCOC(=O)CS(=O)(=O)c1ccc(C(=O)N2CCN(C(=O)c3ccco3)CC2)cc1[N+](=O)[O-]` [MWAC-0001736, CCOC(=O)CS(=O)(=O)c1ccc(cc1[N+](=O)[O-])C(=O)N2CCN(CC2)C(=O)c3occc3] as the compound, how does the “% inhibition (20 µM) biochemical” value read?
Its value is 14%.

Which “% inhibition (20 µM) biochemical” value does the source give for `Cc1ccc2nc(NC(=O)c3ccc(S(C)(=O)=O)c([N+](=O)[O-])c3)sc2c1` [MWAC-0001829, Cc1ccc2nc(NC(=O)c3ccc(c(c3)[N+](=O)[O-])S(=O)(=O)C)sc2c1] here?
The value was 64%.

Which “% inhibition (20 µM) biochemical” value does the source give for `COc1ccc(-c2nnc(SCc3ccc4c(c3)OCO4)n2-c2ccccc2)cc1` [MWAC-0001881, COc1ccc(cc1)c2nnc(SCc3ccc4OCOc4c3)n2c5ccccc5] here?
Its value is 0%.

How did the “% inhibition (20 µM) biochemical” value turn out when `Cc1ccc(COc2ccc([N+](=O)[O-])cc2C=O)cc1` [MWAC-0001790, Cc1ccc(COc2ccc(cc2C=O)[N+](=O)[O-])cc1] was run?
The value was 7%.

How did the “% inhibition (20 µM) biochemical” value turn out when `Cc1ccc(Cn2cc(SCC(=O)NCc3ccco3)c3ccccc32)cc1` [MWAC-0001818, Cc1ccc(Cn2cc(SCC(=O)NCc3occc3)c4ccccc24)cc1] was run?
Its value is 3.38%.

`CCOc1cc(S(=O)(=O)N2c3ccccc3CC2C)ccc1Cl` (centres unmarked) [MWAC-0001761, CCOc1cc(ccc1Cl)S(=O)(=O)N2C(C)Cc3ccccc23] was tested. Which “% inhibition (20 µM) biochemical” value did it give?
The value was 8%.
